# Measurements from patent publication US20240166626A1, “Compounds and Methods for Preventing, Treating, or Ameliorating Airway Disease” (THOMAS JEFFERSON UNIVERSITY, priority 2021, published 2024).
# Target: β1AR (Homo sapiens, UniProt P08588)
# Test: BRET analysis of β-arrestin2 interaction with β1AR in HEK 293 cells
# Format: cell-based
# Conditions: 10 μM DFPQ, FIG. 2B
# Description: FIGS. 2A-2C: […] Cells were read every 2 min post agonist addition. […]® ADRB2 cells (DiscoveRx) were maintained with the AssayCompleteTM Cell Culture kit (DiscoveRx catalog #92-[…]). […] HEK 293 cells stably overexpressing β2AR included 250 μg/ml G418. Cells were incubated at 37° C. in a humidified incubator with 5% CO2. […] Cells were read every three minutes for 18 minutes on a PolarStar Optima plate reader (BMG) to establish peak signal. […] Plates were incubated in the dark at room temperature for one hour. Luminescence was determined at room temperature (23-25° C.) on a PolarStar Optima plate reader (BMG). […] Screening data analysis and IC50 determination. […] Relative assay bias was calculated from the ratio of normalized cAMP and arrestin recruitment responses. […] BRET was measured using a Tecan Infinite F500 microplate reader. […] Bound [35 S]GTPγS was collected by rapid filtration on GF/B filters, washed 4 times with 4 ml of cold GTPγS wash buffer and analyzed by liquid scintillation counting. […] Immunoprecipitated proteins were separated by SDS-PAGE and analyzed by western blot using a β2AR C-terminal tail or phospho-specific antibody. […] Band intensity was measured by densitometry using ImageJ. […] Absorbance was then measured on a plate reader at 405 nm. […] Lungs were monitored for appropriate inflation. […] Images were analyzed post hoc using the ImageJ software. […] Cell-free area was quantitated using ImageJ. […]
# β1AR, sequence (P08588 whole entry): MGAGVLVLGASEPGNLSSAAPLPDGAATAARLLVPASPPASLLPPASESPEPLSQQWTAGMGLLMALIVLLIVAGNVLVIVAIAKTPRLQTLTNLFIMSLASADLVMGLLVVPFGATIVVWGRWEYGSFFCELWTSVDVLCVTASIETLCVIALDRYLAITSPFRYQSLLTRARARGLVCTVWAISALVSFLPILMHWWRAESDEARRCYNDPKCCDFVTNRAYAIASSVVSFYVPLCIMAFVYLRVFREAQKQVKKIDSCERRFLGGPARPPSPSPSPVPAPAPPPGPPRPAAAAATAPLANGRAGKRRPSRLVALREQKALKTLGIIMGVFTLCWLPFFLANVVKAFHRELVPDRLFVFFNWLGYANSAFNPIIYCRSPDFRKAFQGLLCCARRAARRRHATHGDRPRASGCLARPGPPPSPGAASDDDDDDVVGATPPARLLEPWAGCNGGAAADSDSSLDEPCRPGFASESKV
smiles,measurement,value
"Fc1ccc(Nc2nc(NC3CCCCC3)c3ccccc3n2)cc1F [DFPQ, N^4-cyclohexyl-N^2-(3,4-difluorophenyl)quinazoline-2,4-diamine]",β-arrestin2 interaction with the β1AR,not significantly inhibited
